Results taken from PMC4335872, “Pharmacokinetic-Pharmacodynamic Analysis of Spiroindolone Analogs and KAE609 in a Murine Malaria Model” (Antimicrobial Agents and Chemotherapy, 2015).

Columns and labels:
P. berghei = test: Dose fractionation and PK-PD analysis of KAE609 in the P. berghei malaria mouse model; format: in vivo, NMRI mice; conditions: for Parasitemia (mean ± SD): 48 h posttreatment; for %T>TRE: simulated, 48-h period
Protocol: The total daily doses were either administered as a single dose (24 h postinfection) or divided into two oral doses (BID) or three oral doses (TID) per day (Table 1). Four mice were used for each regimen, with the control mice receiving vehicle only. Parasitemia, expressed as parasitized red blood cells (pRBCs) of >100 RBCs, was determined at 72 h postinfection (48 h after the initiation of treatment with KAE609) using standard flow cytometry techniques ([39]).
The concentration of compounds that inhibited 99% of P. berghei growth (IC99) was used to calculate the threshold (TRE = 2 × IC99) and the PK-PD indices. […] The Cmax/TRE, AUC0–48/TRE, and %T>TRE at different doses and dosing regimens were calculated using the Berkeley Madonna Software (version 8.0.1) (Berkeley Madonna, University of California, Berkeley, Berkeley, CA).
The relationship between PK-PD indices (log-transformed Cmax/TRE, log-transformed AUC0–48/TRE, and %T>TRE) and log-transformed parasitemia was analyzed by nonlinear regression analysis. An exploratory analysis of the PK-PD data was done using various models, such as maximum effect (Emax), sigmoid Emax, and with and without slope. A sigmoidal dose-response (variable-slope) model without constants was fitted to the data. GraphPad Prism version 5.02 for Windows (GraphPad Software, San Diego, CA, USA) was the software used for this analysis. The model choice was guided initially by a visual inspection of the y-by-x plots and then by correlation analysis and by evaluating the standard error of the estimate. The parasitemia (P) measures at any value of each different PK-PD index are expressed in equation 1, where EZ50 (otherwise referred to as EC50) is the value of the specific PK-PD index (Cmax/TRE, AUC0–48/TRE, and %T>TRE, respectively) required to produce 50% of the maximal effect, x is any of the PK-PD indices, and Pmax, Pmin, and s are as described previously. The values of x corresponding to the maximum reduction in parasitemia were derived by interpolation based on equation 1.

[1] = system: P. berghei GFP ANKA malaria strain PbGFPCON; set-up: method as in PMID 20813948; conditions: cited from earlier work
Caco-2 permeability = format: in vitro ADME; conditions: human, Caco-2; apical to basolateral
Text: page 5: Running title: PreclinicalPK -PD of antimalarials 73 to high through put form at using in- house standard assa y protocols that are described in the 74 literature. 75 (a)HT-Equilibrium solubilit y at pH 6.8( 1); (b)Parallel Artificial Membrane P ermeability Assa y 76 expressed in % fraction absorbed (FA) ( 2,3 ); (c)Apparent permeability from apical to […] 78 tested; (d)intrinsic clearance in mouse liver micro somes ex pressed as µ L/ min/mg protein, in 79 the presen ce of liver enzym es ( 6); (e)Mous e plasm a protein binding using rapid equilibrium […] 81 82 83 84 85 86 87 88 89 90 91 92 93 94 95 96 97 98 5

[2] = interpolated from PK-PD model, 48 h observation
[3] = total dose 0.5 mg/kg p.o. as 1 x 0.5 mg/kg
[4] = total dose 0.5 mg/kg p.o. as 2 x 0.25 mg/kg (every 12 h)
[5] = total dose 0.5 mg/kg p.o. as 3 x 0.17 mg/kg (every 8 h)
[6] = total dose 1 mg/kg p.o. as 1 x 1 mg/kg
[7] = total dose 1 mg/kg p.o. as 2 x 0.5 mg/kg (every 12 h)
[8] = total dose 1 mg/kg p.o. as 3 x 0.33 mg/kg (every 8 h)
[9] = total dose 2 mg/kg p.o. as 1 x 2 mg/kg
[10] = total dose 2 mg/kg p.o. as 2 x 1 mg/kg (every 12 h)
[11] = total dose 2 mg/kg p.o. as 3 x 0.67 mg/kg (every 8 h)
[12] = total dose 4 mg/kg p.o. as 1 x 4 mg/kg
[13] = total dose 4 mg/kg p.o. as 2 x 2 mg/kg (every 12 h)
[14] = total dose 4 mg/kg p.o. as 3 x 1.33 mg/kg (every 8 h)
[15] = total dose 8 mg/kg p.o. as 1 x 8 mg/kg
[16] = total dose 8 mg/kg p.o. as 2 x 4 mg/kg (every 12 h)
[17] = total dose 8 mg/kg p.o. as 3 x 2.67 mg/kg (every 8 h)

SMILES: C[C@H]1Cc2c([nH]c3cc(Cl)c(F)cc23)[C@@]2(N1)C(=O)Nc1ccc(Cl)cc12 [(+)-7 (KAE609)]
- Type of killing suggested by PK-PD analysis (P. berghei; P. berghei malaria mouse model): time-dependent rather than concentration-dependent killing
- AUC for reduction in parasitemia in the P. berghei murine malaria model (P. berghei; TRE = 48 ng/ml): 28,176 ng · h/ml
- Cmax for reduction in parasitemia in the P. berghei murine malaria model (P. berghei; TRE = 48 ng/ml): 1,440 ng/ml
- Cmax needed to reduce parasitemia by 50% in vivo (P. berghei; as derived from Cmax/TRE (Table 5)): 260 ng/mL
- AUC0–48/TRE ratio likely to result in the maximum reduction in parasitemia (P. berghei; [2]): 587
- Cmax/TRE ratio likely to result in the maximum reduction in parasitemia (P. berghei; [2]): 30
- T>TRE likely to result in the maximum reduction in parasitemia (P. berghei; [2]): 100%
- Hill slope, value (95% CI), PK-PD model for %T>TRE (P. berghei; parasitemia vs %T>TRE): −0.031 (−0.037 to −0.024)
- Pmax, value (95% CI), PK-PD model for %T>TRE (P. berghei; parasitemia vs %T>TRE): 53.09 (32.28 to 87.50)
- Pmin, value (95% CI), PK-PD model for %T>TRE (P. berghei; parasitemia vs %T>TRE): 0.15 (0.12 to 0.20)
- Hill slope, value (95% CI), PK-PD model for AUC0–48/TRE (P. berghei; parasitemia vs AUC0–48/TRE): −1.63 (−2.04 to −1.22)
- Pmax, value (95% CI), PK-PD model for AUC0–48/TRE (P. berghei; parasitemia vs AUC0–48/TRE): 32.66 (25.06 to 42.56)
- Pmin, value (95% CI), PK-PD model for AUC0–48/TRE (P. berghei; parasitemia vs AUC0–48/TRE): 0.13 (0.09 to 0.20)
- Parasitemia (mean ± SD) (P. berghei; [3]): 28.82 ± 4.49%
- %T>TRE (P. berghei; [3]): 4.3%
- Parasitemia (mean ± SD) (P. berghei; [4]): 38.28 ± 2.95%
- %T>TRE (P. berghei; [4]): 0%
- Parasitemia (mean ± SD) (P. berghei; [5]): 35.37 ± 5.32%
- %T>TRE (P. berghei; [5]): 0%
- Parasitemia (mean ± SD) (P. berghei; [6]): 17.82 ± 3.05%
- %T>TRE (P. berghei; [6]): 10.7%
- Parasitemia (mean ± SD) (P. berghei; [7]): 18.19 ± 6.81%
- %T>TRE (P. berghei; [7]): 8.8%
- Parasitemia (mean ± SD) (P. berghei; [8]): 20.31 ± 5.71%
- %T>TRE (P. berghei; [8]): 0%
- Parasitemia (mean ± SD) (P. berghei; [9]): 5.64 ± 1.69%
- %T>TRE (P. berghei; [9]): 23.0%
- Parasitemia (mean ± SD) (P. berghei; [10]): 6.48 ± 3.94%
- %T>TRE (P. berghei; [10]): 22.7%
- Parasitemia (mean ± SD) (P. berghei; [11]): 10.83 ± 4.67%
- %T>TRE (P. berghei; [11]): 22.3%
- Parasitemia (mean ± SD) (P. berghei; [12]): 0.63 ± 0.57%
- %T>TRE (P. berghei; [12]): 54.5%
- Parasitemia (mean ± SD) (P. berghei; [13]): 0.43 ± 0.38%
- %T>TRE (P. berghei; [13]): 56.1%
- Parasitemia (mean ± SD) (P. berghei; [14]): 0.55 ± 0.28%
- %T>TRE (P. berghei; [14]): 57.3%
- Parasitemia (mean ± SD) (P. berghei; [15]): 0.15 ± 0.03%
- %T>TRE (P. berghei; [15]): 99.9%
- Parasitemia (mean ± SD) (P. berghei; [16]): 0.18 ± 0.04%
- %T>TRE (P. berghei; [16]): 99.8%
- Parasitemia (mean ± SD) (P. berghei; [17]): 0.16 ± 0.02%
- %T>TRE (P. berghei; [17]): 99.8%
- Single oral dose giving 50% reduction in parasitemia ([1]; P. berghei malaria mouse model): 1.2 mg/kg
- Single oral dose giving 90% reduction in parasitemia ([1]; P. berghei malaria mouse model): 2.7 mg/kg
- Single oral dose giving 99% reduction in parasitemia ([1]; P. berghei malaria mouse model): 5.3 mg/kg
- Cure rate ([1]; single dose of 30 mg/kg): 50%
- Animals cured ([1]; single oral dose of 100 mg/kg): 100%
- Cure ([1]; thrice-daily oral doses of 50 mg/kg): complete cure
- Papp A→B (Caco-2 permeability): 1.69 ×10⁻⁶ cm/s
